The supplement of paper PMC11821682

Columns and labels:
HL-60 = experiment: Cell Health Index (toxicity pseudo-probability over dose series) (index 0-1); higher = more cytotoxic / cell stress;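 note: HL-60 cells exposed 4 h at 37 °C to ten threefold dilutions spanning 5 nM to 100 µM, multiparametric flow cytometry features scored by machine-learning classification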
Danio rerio embryo = experiment: BMC10 any morphological effect or mortality at 120 hpf; higher = less toxic
Procedure: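 ZBEscreen: dechorionated Tropical 5D zebrafish embryos were exposed from 4 hpf in 96-well plates (1% DMSO, 28 °C). All compounds were first tested at 100 µM; hits were retested at 0.005-100 µM. Morphology and mortality were scored at 120 hpf and fitted as BMC10 (3-parameter log-logistic, extra risk). The embryonic photomotor response at 24 hpf and the larval photomotor response at 120 hpf are given as lowest effect levels (K-S test, p<0.01). NA = not significant up to 100 µM; NT = not tested.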

SMILES | Cell Health Index (HL-60) | BMC10 any morphological effect or mortality (Danio rerio embryo)
CC(N)C12C[C@H]3C[C@@H](C1)C[C@@H](C2)C3.Cl (stereo partly specified) [Rimantadine] | 0.137 | > 100 µM
Cc1cc(C)c(Nc2ccnc(Nc3ccc(C#N)cc3)n2)c(C)c1 [Dapivirine] | 0.836 | > 100 µM
C[C@@]1(O)[C@H](O)[C@@H](CO)O[C@H]1n1cnc2c(N)ncnc21 [2'-C-Methyladenosine] | 0.266 | > 100 µM
C=C[C@H]1C[N@@]2CC[C@H]1C[C@H]2[C@H](O)c1ccnc2ccc(OC)cc12 [Quinine] | 0.249 | > 100 µM
O=c1cc(-c2ccc(O)c(O)c2)oc2c([C@@H]3O[C@H](CO)[C@@H](O)[C@H](O)[C@H]3O)c(O)cc(O)c12 [Orientin] | 0.337 | > 100 µM
Nc1ccn([C@@H]2CS[C@H](CO)O2)c(=O)n1 [Lamivudine] | 0.2 | > 100 µM
Cc1cnc(C(=O)N[C@H]2CCCCC/C=C\[C@@H]3C[C@@]3(C(=O)NS(=O)(=O)C3CC3)NC(=O)[C@@H]3C[C@@H](Oc4nc5ccccc5c5ccccc45)CN3C2=O)cn1 [Paritaprevir] | 0.626 | > 100 µM
Nc1nc(=O)c2ncn(COC(CO)CO)c2[nH]1 [Ganciclovir] | 0.179 | > 100 µM
COc1cc2c(=O)c(-c3ccc(O)cc3)coc2cc1O[C@@H]1O[C@H](CO)[C@@H](O)[C@H](O)[C@H]1O [Glycitin] | 0.158 | > 100 µM
CCOCc1nc2c(N)nc3ccccc3c2n1CC(C)(C)O [Resiquimod] | 0.38 | > 100 µM
CCCCN(CCCC)CC(O)c1cc(Cl)cc2c1-c1ccc(Cl)cc1/C2=C/c1ccc(Cl)cc1 (stereo unspecified) [Lumefantrine] | 0.218 | > 100 µM
Cn1c(CNc2ccc(C(=N)N)cc2)nc2cc(C(=O)N(CCC(=O)O)c3ccccn3)ccc21 [Dabigatran] | 0.137 | > 100 µM
c1cc(CN2CCCNCCNCCCNCC2)ccc1CN1CCCNCCNCCCNCC1 [Plerixafor] | 0.115 | > 100 µM
CC(=O)NC1[C@H]([C@H](O)[C@H](O)CO)O[C@@](O[C@H]2[C@@H](O)[C@@H](CO)O[C@@H](O[C@@H]([C@H](O)[C@@H](O)C=O)[C@H](O)CO)[C@@H]2O)(C(=O)[O-])C[C@@H]1O.[Na+] (stereo partly specified) [N-Acetylneuraminoyllactose] | 0.235 | > 100 µM
CC(C)OC(=O)[C@H](C)NP(=O)(OC[C@H]1O[C@@H](n2ccc(=O)[nH]c2=O)[C@](C)(F)[C@@H]1O)Oc1ccccc1 (stereo partly specified) [Sofosbuvir] | 0.166 | > 100 µM
O=c1cc(-c2ccc(O)c(O)c2)oc2cc(O)cc(O)c12 [Luteolin] | 0.54 | > 100 µM
Oc1cc(O)cc(/C=C/c2ccc(O)cc2O)c1 [Oxyresveratrol] | 0.673 | > 100 µM
O=C(c1ccccc1)c1ccc2nc(NC(=O)c3csc(C4CCN(c5ncnc6ccsc56)CC4)n3)[nH]c2c1 | 0.507 | > 100 µM
O=C(/C=C/c1ccc(O)c(O)c1)O[C@@H]1[C@H](O)C[C@@](O)(C(=O)O)C[C@H]1OC(=O)/C=C/c1ccc(O)c(O)c1 [3,4-Dicaffeoylquinic acid] | 0.416 | > 100 µM
C=C(C)[C@@H]1CC[C@]2(C=O)CC[C@]3(C)[C@H](CC[C@@H]4[C@@]5(C)CC[C@H](O)C(C)(C)[C@@H]5CC[C@]43C)[C@@H]12 [Betulinic aldehyde] | 0.515 | > 100 µM
CC(=O)OCC(CCn1cnc2cnc(N)nc21)COC(C)=O [Famciclovir] | 0.254 | > 100 µM
CCOC(=O)CN[C@@H](C(=O)N1CC[C@H]1C(=O)NCc1ccc(C(=N)NO)cc1)C1CCCCC1 [Ximelagatran] | 0.193 | > 100 µM
CC1=CC(=O)/C(=C/c2ccc(O)c(O)c2)O1 [Inotilone] | 0.76 | > 100 µM
Cc1cc(/C=C/C#N)cc(C)c1Nc1ccnc(Nc2ccc(C#N)cc2)n1 [Rilpivirine] | 0.639 | > 100 µM

SMILES | Cell Health Index (HL-60) | BMC10 any morphological effect or mortality (Danio rerio embryo)
CN(C)C(=O)COC(=O)Cc1ccc(OC(=O)c2ccc(NC(=N)N)cc2)cc1.CS(=O)(=O)O [Camostat] | 0.162 | > 100 µM
CC(=O)Nc1nc(C)c(-c2ccc(Cl)c(S(=O)(=O)NCCO)c2)s1 [PIK-93] | 0.267 | > 100 µM
Cc1c(O)c(=O)ccn1C [Deferiprone] | 0.256 | > 100 µM
CC(C)[C@H](N)C(=O)OCC(CO)OCn1cnc2c(=O)nc(N)[nH]c21.Cl (stereo partly specified) [Valganciclovir] | 0.247 | > 100 µM
COC(=O)c1cc(O)c(O)c(O)c1 [Methyl gallate] | 0.351 | > 100 µM
CC(C)c1nc(CN(C)C(=O)N[C@H](C(=O)N[C@@H](Cc2ccccc2)C[C@H](O)[C@H](Cc2ccccc2)NC(=O)OCc2cncs2)C(C)C)cs1 [Ritonavir] | 0.532 | > 100 µM
CC(=O)N[C@@H](CS)C(=O)O [N-acetyl-L-Cysteine] | 0.143 | > 100 µM
O=C(O)C[C@@H]1C(=O)O[C@H]2[C@@H]3OC(=O)c4cc(O)c(O)c(O)c4-c4c(cc(O)c(O)c4O)C(=O)OC[C@H]2O[C@@H](OC(=O)c2cc(O)c(O)c(O)c2)[C@@H]3OC(=O)c2cc(O)c(O)c3c2[C@H]1[C@H](O)C(=O)O3 [Chebulagic acid] | 0.874 | > 100 µM
CCCCc1nc(Cl)c(CO)n1Cc1ccc(-c2ccccc2-c2nnn[n-]2)cc1.[K+] [Losartan] | 0.209 | > 100 µM
O=C(O)[C@H]1O[C@@H](Oc2cc3oc(-c4ccc(O)cc4)cc(=O)c3c(O)c2O)[C@H](O)[C@@H](O)[C@@H]1O [Scutellarin] | 0.476 | > 100 µM
O=C(CCc1ccc(O)cc1)c1c(O)cc(O[C@@H]2O[C@H](CO)[C@@H](O)[C@H](O)[C@H]2O)cc1O [Trilobatin] | 0.183 | > 100 µM
CC(=O)Nc1ccc(C(=O)O)cc1.CC(=O)Nc1ccc(C(=O)O)cc1.CC(=O)Nc1ccc(C(=O)O)cc1.CC(O)CN(C)C.CC(O)CN(C)C.CC(O)CN(C)C.O=c1nc[nH]c2c1ncn2[C@@H]1O[C@H](CO)[C@@H](O)[C@H]1O [Inosine] | 0.242 | > 100 µM
CC(C)Cc1ncc(Cc2ccccc2)[nH]c1=O [Pheleuin] | 0.182 | > 100 µM
CC(C)OC(=O)[C@H](C)N[P@](=O)(CO[C@H](C)Cn1cnc2c(N)ncnc21)Oc1ccccc1 [GS-7340] | 0.202 | > 100 µM
O=C(/C=C/c1ccc(O)c(O)c1)O[C@@H]1C[C@](OC(=O)/C=C/c2ccc(O)c(O)c2)(C(=O)O)C[C@@H](O)[C@H]1O [1,5-Dicaffeoylquinic acid] | 0.569 | > 100 µM
COC(=O)N[C@H](C(=O)N[C@@H](Cc1ccccc1)[C@@H](O)CN(Cc1ccc(-c2ccccn2)cc1)NC(=O)[C@@H](NC(=O)OC)C(C)(C)C)C(C)(C)C [Atazanavir] | 0.374 | > 100 µM
CCN(CC)CCCC(C)Nc1ccnc2cc(Cl)ccc12.O=P(O)(O)O.O=P(O)(O)O (stereo unspecified) [Chloroquine] | 0.236 | > 100 µM
CCCCCCOC(=O)NC(=N)c1ccc(NCc2nc3cc(C(=O)N(CCC(=O)OCC)c4ccccn4)ccc3n2C)cc1 [Dabigatran etexilate] | 0.832 | > 100 µM
Cl.N=C(N)NC(=N)N1CCOCC1 [Moroxydine] | 0.19 | > 100 µM
C=C[C@@H]1C2=CCOC(=O)C2=CO[C@H]1O[C@@H]1O[C@H](CO)[C@@H](O)[C@H](O)[C@H]1O [Gentiopicrin] | 0.225 | > 100 µM
O=C1O[C@@H]2[C@H]3OC(=O)c4cc(O)c(O)c(O)c4-c4c(cc(O)c(O)c4O)C(=O)OC[C@@H]2OC(OC(=O)c2cc(O)c(O)c(O)c2)[C@H]3OC(=O)c2cc(O)c(O)c3c2C2C1=CC(=O)C(O)(O3)C2(O)O (stereo partly specified) [Geraniin] | 0.824 | > 100 µM
O=c1c(O[C@@H]2O[C@H](CO)[C@H](O)[C@H](O)[C@H]2O)c(-c2ccc(O)c(O)c2)oc2cc(O)cc(O)c12 [Quercetin 3-D-galactoside] | 0.218 | > 100 µM
O=C(OC1OC2COC(=O)c3cc(O)c(O)c(O)c3-c3c(cc(O)c(O)c3O)C(=O)OC(C2O)C1O)c1cc(O)c(O)c(O)c1 (stereo unspecified) [Corilagin] | 0.889 | > 100 µM
COc1cc(OC)c2c(=O)nc(-c3cc(C)c(OCCO)c(C)c3)[nH]c2c1 [Apabetalone] | 0.344 | > 100 µM
